The record followed here is patent US20050070532A1, “Aryl compounds as modulators of PPARS and methods of treating metabolic disorders” (priority 2003, published 2005).

The target in one experiment is T1, hPPARα (Homo sapiens, UniProt Q07869).
T1 construct: expressed in transfected cells; host or cells: CV-1 cells
T1 sequence (Q07869 239-466 limits assumed): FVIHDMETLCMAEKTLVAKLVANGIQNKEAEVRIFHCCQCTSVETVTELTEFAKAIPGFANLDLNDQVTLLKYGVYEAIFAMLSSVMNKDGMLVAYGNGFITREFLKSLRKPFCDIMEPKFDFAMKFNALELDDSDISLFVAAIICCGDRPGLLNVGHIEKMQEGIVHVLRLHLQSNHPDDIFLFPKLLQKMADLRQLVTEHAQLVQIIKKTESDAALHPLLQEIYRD
The experiment can be described thus: cell-based human PPAR-GAL4 chimera luciferase reporter assay in CV-1 cells (PPARα). The conditions noted are these: CV-1 cells transiently transfected with PPAR LBD-GAL4 chimera and luciferase reporter, 24 hours treatment; read-out: hPPAPα (EC50). How it is done:
(§1) The compounds were evaluated in a cell-based assay to determine their human PPAR activity. The plasmids for human PPAR-GAL4 chimeras were prepared by fusing amplified cDNAs encoding the LBDs of PPARs to the C-terminal end of the yeast GAL4 DNA binding domain. CV-1 cells were grown and transiently tranfected with PerFectin (GTS, San Diego, Calif.) according to the manufacturer's protocol along with a luciferase reporter. Eight hours after transfection, 50 μL of cells were replated into 384 well plates (1×10^5 cells/well). Sixteen hours after replating, cells were treated with either compounds or 1% DMSO for 24 hours. Luciferase activity was then assayed with Britelite (Perkin Elmer) following the manufacturer's protocol and measured with either the Perkin Elmer Viewlux or Molecular Devices Acquest.
A general note: In a reporter assay the amount or activity of a reporter protein is the signal.

Another experiment concerns the target T2, hPPARγ (Homo sapiens, UniProt P37231).
T2 construct: expressed in transfected cells; host or cells: CV-1 cells
T2 sequence (P37231 238-503 limits assumed): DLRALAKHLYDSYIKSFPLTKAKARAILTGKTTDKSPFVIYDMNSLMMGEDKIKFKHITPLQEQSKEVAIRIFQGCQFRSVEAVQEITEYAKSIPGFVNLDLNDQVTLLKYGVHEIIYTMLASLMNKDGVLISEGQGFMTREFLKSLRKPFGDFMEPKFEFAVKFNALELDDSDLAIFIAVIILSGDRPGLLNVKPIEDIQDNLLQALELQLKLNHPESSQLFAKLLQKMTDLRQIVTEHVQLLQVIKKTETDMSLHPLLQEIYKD
Nature of the experiment: cell-based human PPAR-GAL4 chimera luciferase reporter assay in CV-1 cells (PPARγ). The following applies: CV-1 cells transiently transfected with PPAR LBD-GAL4 chimera and luciferase reporter, 24 hours treatment. How it is done:
as §1

A further experiment addresses T3, hPPARδ (Homo sapiens, UniProt Q03181).
T3 construct: expressed in transfected cells; host or cells: CV-1 cells
T3 sequence (Q03181 211-439 limits assumed): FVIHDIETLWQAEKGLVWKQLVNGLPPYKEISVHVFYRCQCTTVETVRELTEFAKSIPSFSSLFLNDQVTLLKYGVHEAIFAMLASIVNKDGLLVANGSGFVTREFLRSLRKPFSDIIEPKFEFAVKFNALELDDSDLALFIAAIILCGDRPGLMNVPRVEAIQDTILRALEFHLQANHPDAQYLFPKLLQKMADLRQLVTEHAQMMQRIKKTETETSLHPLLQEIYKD
The experiment can be described thus: cell-based human PPAR-GAL4 chimera luciferase reporter assay in CV-1 cells (PPARδ). The conditions noted are these: CV-1 cells transiently transfected with PPAR LBD-GAL4 chimera and luciferase reporter, 24 hours treatment. How it is done: as §1

A value given as a limit tells only on which side of the number the result lay.

What is called EC50 is the concentration giving half of the maximal effect. `CCc1cnc(N(CCCOc2cccc(CC(=O)O)c2)Cc2ccc(C(F)(F)F)cc2C(F)(F)F)nc1`: the EC50 at hPPARα, on hPPARγ and at hPPARδ was less than 1 µM throughout.

Turning to `CCCCN(CCCOc1cccc(CC(=O)O)c1)c1ncc(CC)cn1`, the EC50 on hPPARα is more than 100 µM; at hPPARγ, less than 1 µM; on hPPARδ, 1 to 100 µM.

On to `CCCCN(CCCOc1cccc(CC(=O)O)c1)c1ccccn1`, for which the EC50 was more than 100 µM at hPPARα, less than 1 µM at hPPARγ and 1 to 100 µM on hPPARδ.

As to `CCCCN(CCCOc1cccc(CC(=O)O)c1)c1nc2ccccc2s1`, the concentration for a half-maximal effect (EC50) at hPPARα is 1 to 100 µM; on hPPARγ, more than 100 µM; on hPPARδ, 1 to 100 µM.

Consider `CCCCN(CCCOc1cccc(CC(=O)O)c1)c1nc2ccccc2o1`, for which the EC50 was 1 to 100 µM at hPPARα, more than 100 µM on hPPARγ and 1 to 100 µM at hPPARδ.

For `O=C(O)Cc1cccc(OCCCN(Cc2ccc(C(F)(F)F)cc2)c2nc3ccccc3s2)c1`, the concentration giving a half-maximal response (EC50) at hPPARα, at hPPARγ and on hPPARδ was less than 1 µM throughout.

Take `O=C(O)Cc1cccc(OCCCN(Cc2ccc(C(F)(F)F)cc2C(F)(F)F)c2nc3ccccc3s2)c1`: the EC50 at hPPARα is more than 100 µM; on hPPARγ, less than 1 µM; on hPPARδ, 1 to 100 µM.

On to `O=C(O)Cc1cccc(OCCCN(Cc2ccc(C(F)(F)F)cc2C(F)(F)F)c2nc3ccccc3o2)c1`, for which the values for the EC50 on hPPARα, at hPPARγ and on hPPARδ were more than 100 µM, less than 1 µM and 1 to 100 µM, respectively.

For the compound `O=C(O)Cc1cccc(OCCCN(Cc2ccc(C(F)(F)F)cc2C(F)(F)F)c2ccccn2)c1`, the EC50 at hPPARα is more than 100 µM; at hPPARγ, less than 1 µM; at hPPARδ, less than 1 µM.

For the compound `CCc1cnc(N(CCCOc2c(C(=O)O)ccc3ccccc23)Cc2ccc(C(F)(F)F)cc2C(F)(F)F)nc1`, the EC50 at hPPARα was 1 to 100 µM; at hPPARγ, less than 1 µM; on hPPARδ, more than 100 µM.

With `CCc1cnc(N(CCCOc2ccc3cc(C(=O)O)ccc3c2)Cc2ccc(C(F)(F)F)cc2C(F)(F)F)nc1`, the EC50 at hPPARα, at hPPARγ and at hPPARδ was more than 100 µM in each case.

With `CCc1cnc(N(CCCOc2cc3ccccc3cc2C(=O)O)Cc2ccc(C(F)(F)F)cc2C(F)(F)F)nc1`, the figures for the EC50 on hPPARα, on hPPARγ and at hPPARδ were 1 to 100 µM, less than 1 µM and more than 100 µM, respectively.

As for `CCCCN(CCCOc1c(C(=O)O)ccc2ccccc12)c1ncc(CC)cn1`, the values for the EC50 at hPPARα, on hPPARγ and on hPPARδ were more than 100 µM, less than 1 µM and more than 100 µM, respectively.

`CCCCN(CCCOc1c(C(=O)O)ccc2ccccc12)c1ccccn1`: the EC50 at hPPARα is more than 100 µM; at hPPARγ, less than 1 µM; on hPPARδ, more than 100 µM.

As for `CCCCN(CCCOc1c(C(=O)O)ccc2ccccc12)c1nc2ccccc2s1`, the half-maximal effective concentration (EC50) was more than 100 µM on hPPARα, 1 to 100 µM on hPPARγ and 1 to 100 µM at hPPARδ.

On to `O=C(O)c1ccc2ccccc2c1OCCCN(Cc1ccc(C(F)(F)F)cc1)c1nc2ccccc2s1`, for which the figures for the EC50 at hPPARα, at hPPARγ and on hPPARδ were more than 100 µM, less than 1 µM and more than 100 µM, respectively.

Take `CCCCN(CCCOc1c(C(=O)O)ccc2ccccc12)c1nc2ccccc2o1`: the EC50 at hPPARα is more than 100 µM; at hPPARγ, 1 to 100 µM; at hPPARδ, more than 100 µM.

For `O=C(O)c1ccc2ccccc2c1OCCCN(Cc1ccc(C(F)(F)F)cc1C(F)(F)F)c1nc2ccccc2o1`, the half-maximal effective concentration (EC50) on hPPARα was more than 100 µM; on hPPARγ it was less than 1 µM; on hPPARδ, more than 100 µM.
